Counter-ions that a name gives are not always drawn. Marks after values point to notes of the source that are not given here.
Assays:
[1] = test system: hematopoietic stem and progenitor cells (HSPCs); assay: G-CSF-induced mobilization of hematopoietic progenitors (circulating CFU-C); format: in vivo, mice; details: for G-CSF-induced mobilization with clenbuterol: clenbuterol 2 mg/kg/day i.p. two days before and during G-CSF
Procedure: (§1) To induce HSPC mobilization, mice were injected with recombinant human G-CSF (Filgrastim, Amgen, Thousand Oaks, Calif., 250 μg/kg/day, every 12 hours, 8 divided doses, s.c.) in PBS supplemented with 0.1% endotoxin free bovine serum albumin (BSA) or fucoidan (Sigma; 2 doses of 100 mg/kg with 2 h interval, i.p.) in PBS. Blood was harvested 3 h (G-CSF) or 1 h (fucoidan). CFU-C assays were carried out as previously described (Katayama, Y., and Frenette, P. S. (2003). Galactocerebrosides are required postnatally for stromal-dependent bone marrow lymphopoiesis. Immunity 18, 789-800).
A chronic guide cannula (1.0 mm) was implanted stereotaxically into the lateral ventricle (coordinates AP, −0.7 mm; DV, −2.4 mm; ML, 1.5 mm, from bregma). One week after implantation, mice received a reduced dose of G-CSF (25 μg/kg daily for 4 doses) either by ICV infusion (rate: 0.4 μL/min) or by s.c. injection.
(§2) Newborn C57BL/6 mice were injected s.c. with 6OHDA (100 mg/kg, Sigma) or vehicle (saline) on postnatal days 2, 4, 6, 8 and 9. HSPC mobilization was induced at 3 weeks of age. For SNS disruption in adult C57BL6 mice, 4 week-old animals were injected i.p. with 2 doses of 6OHDA or vehicle, 100 mg/kg on day 0, 250 mg/kg on day 2, and G-CSF treatment was begun on day 5. For β-adrenergic receptor blockade, 4 week-old C57BL/6 mice were treated with propranolol (0.5 g/L in drinking water, Sigma) or control pure water for 3 weeks prior to mobilization. For rescue experiments, clenbuterol (2 mg/kg/day, i.p.) was injected starting day −2 prior to and continued during G-CSF treatment.

[2] = test system: catecholaminergic neurons; assay: Tissue catecholamines after 6-hydroxydopamine treatment (HPLC, heart); format: in vivo, C57BL/6 mice; details: 5 week-old C57BL6 mice treated perinatally with 6OHDA, n=3, p<0.05 vs PBS
Procedure: as §2
Hearts from 5 week-old C57BL6 mice treated perinatally with 6-hydroxydopamine (6OHDA) or PBS control were homogenized in 0.1 M trichloroacetic acid containing 10 mM sodium acetate, 0.1 mM EDTA, 1 μM isoproterenol (as internal standard), and 10.5% methanol (pH 3.8). Catecholamine levels were determined by HPLC at the Neurochemistry Core Lab, Vanderbilt University's Center for Molecular Neuroscience research (Nashville, Tenn.). * p<0.05 compared with PBS control. n=3 mice.

[3] = test system: hematopoietic progenitor; assay: AMD3100-induced hematopoietic progenitor mobilization (stem cell egress); format: in vivo, C57BL/6 mice
Procedure: Studies were done to determine the effect of destruction of dopaminergic and noradrenergic neurons on stem cell egress. In these studies, newborn C57BL/6 mice were injected subcutaneously with 6OHDA (100 mg/kg, Sigma) or vehicle (normal saline) on postnatal days 2, 4, 6, 8, and 9. Hematopoietic progenitor mobilization was induced at 34 weeks of age, by subcutaneous injection of AMD3100 (5 mg/kg) in normal saline. Peripheral blood was harvested retroorbitally one hour post injection. P-value was calculated using two-tailed Student's t-test assuming unequal variances.
Studies were done to determine the effect of the beta agonist clenbuterol on stem cell egress. In this study, all drugs were dissolved in normal saline (0.9% w/v NaCl), with a delivery volume of 10 μL/g body mass. 10 μl/g saline i.p. or 2 mg/kg clenbuterol i.p. were given to adult (8-10 week old) C57BL6 mice 1 hour prior to hematopoietic progenitor mobilization induced by […] s.c. Peripheral blood was harvested retroorbitally one hour post AMD3100 injection. P-value was calculated using two-tailed Student's t-test assuming unequal variances.

[4] = test system: circulating tumor cells; details: AMD3100 5 mg/Kg, blood 1 h later; planned experiment
Excerpt: Luciferase expression will allow us to monitor distant metastases whereas GFP expression will permit to quantify the number of circulating tumor cells under baseline conditions and following treatment with stem cell “mobilizers”. Firstly, we will evaluate the effect of CXCR4 inhibition, using the specific antagonist AMD3100 on circulating tumor cells. Blood from NOD/SCID mice bearing tumors (day 35 for PC3lucGFP, day 15 for PC3MlucGFP) will be harvested at baseline to evaluate steady-state levels of circulating tumor cells. Mice will then be injected with AMD3100 at a dose of 5 mg/Kg and blood will be harvested 1 h later to evaluate the number of circulating tumor cells. […] To quantify the absolute counts of tumor cells, we will determine the number of circulating nucleated cells using an automatic cell counter (available in the PI's laboratory), and the proportion of GFP+ cells will be evaluated by flow cytometry in which a large sampling (>500,000 events) will be acquired owing to the rarity of circulating tumor cells.

[5] = test system: norepinephrine; assay: Norepinephrine turnover in hearts after AMPT; format: in vivo, mice; details: AMPT 300 mg/kg, mean±sem, n=4-5
Procedure: FIG. 11. Norepinephine turnover in tissues following G-CSF administration in Cgt littermates. • To assess turnover rate, Cgt were administered the catecholamine synthesis inhibitor α-methyl-p-tyrosine (AMPT, 300 mg/kg, Sigma) or were left untreated. Animals were sacrificed 4 h after AMPT injection. Hearts were rapidly removed, weighed, frozen in liquid nitrogen and stored at −80° C. for norepinephrine measurements. NE levels were determined by HPLC at the Neurochemistry Core Lab, Vanderbilt University's Center for Molecular Neuroscience Research (Nashville, Tenn.). Under steady-state conditions, the decline of norepinephrine (NE) reflects the synthesis rate and the sympathetic tone. n=4-5 mice per group; * p<0.05.
Decline in tissue levels of norepinephrine obeys first order kinetics (Brodie, B. B., Costa, E., Dlabac, A., Neff, N. H., and Smookler, H. H. (1966). Application of steady state kinetics to the estimation of synthesis rate and turnover time of tissue catecholamines. J Pharmacol Exp Ther 154, 493-498): […]

[6] = test system: SDF-1; assay: SDF-1 secretion by stromal cell line MS-5 (ELISA); format: cell-based; details: 72 h exposure of MS-5 cells
Excerpt: Studies were also done to determine the effect of norepinephrine or a beta receptor agonist on SDF-1 secretion by a stromal cell line and to determine if there is a correlation with stem cell egress. […] This corresponds with an increase in the stem cell egress.

[7] = test system: hematopoietic stem and progenitor cells (HSPCs); assay: Fucoidan-induced mobilization of hematopoietic progenitors (circulating CFU-C); format: in vivo; details: Cgt−/− mice; 2 doses of 100 mg/kg i.p.
Procedure: as §1

## NCCc1cc(O)c(O)cc1O [6OHDA, 6-hydroxydopamine]
[1]; 6OHDA-treated adult C57BL/6 mice
  G-CSF-elicited mobilization: significantly reduced
[1]; perinatally 6OHDA-lesioned mice vs vehicle littermates
  number of HSPCs mobilized by G-CSF: dramatically reduced
[1]; perinatally 6OHDA-treated mice, steady-state BM
  baseline CFU-C counts per bone: did not alter
[2]
  Dopamine: 10 ± 10* pmol/mg tissue
  Epinephrine: 41 ± 20* pmol/mg tissue
  Norepinephrine: 49 ± 10* pmol/mg tissue
[3]; C57BL/6 mice given 6OHDA 100 mg/kg s.c. postnatal days 2, 4, 6, 8, 9, AMD3100 5 mg/kg s.c. at 34 weeks of age, blood one hour post injection
  stem cell egress induced by AMD3100: decreased in a dose dependent manner

## c1cc(CN2CCCNCCNCCCNCC2)ccc1CN1CCCNCCNCCCNCC1 [AMD3100, 1,1′-[1,4-phenylene-bis(methylene)]-bis(1,4,8,11-tetra-azacyclotetradecane) octahydrochloride dehydrate]
[4]
  number of circulating tumor cells: will increase the number of circulating tumor cells

## CC(N)(Cc1ccc(O)cc1)C(=O)O (stereo not drawn) [AMPT, α-methyl-p-tyrosine]
[5]; Cgt+/+, Cgt+/− mice
  Level after AMPT inhibition, 4 h (norepinephrine, heart): 198 ± 38 pg/mg wet weight
[5]; Cgt−/− mice
  Level after AMPT inhibition, 4 h (norepinephrine, heart): 335 ± 32 pg/mg wet weight

## CC(C)NCC(O)c1ccc(O)c(O)c1 (stereo not drawn) [Isoproterenol]
[6]
  SDF-1 secretion: decreased in a dose-dependent manner

## CC(C)(C)NCC(O)c1cc(Cl)c(N)c(Cl)c1 (stereo not drawn) [clenbuterol]
[1]; Dbh+/− controls
  G-CSF-induced mobilization with clenbuterol: further enhanced mobilization
[1]; Dbh−/− mice
  G-CSF-induced mobilization with clenbuterol: rescued in part the mobilization defect
[1]; same dose schedule, no G-CSF, data not shown
  mobilization by clenbuterol by itself: did not trigger mobilization
[3]; adult C57BL6 mice, clenbuterol 2 mg/kg i.p. 1 hour prior to AMD3100 s.c., blood one hour post AMD3100
  stem cell egress induced by AMD3100 with clenbuterol: boost stem cell egress in a dose dependent manner

## NC[C@H](O)c1ccc(O)c(O)c1 [norepinephrine]
[6]
  SDF-1 secretion: decreased in a dose-dependent manner

## CC(C)NCC(O)COc1cccc2ccccc12 (stereo not drawn) [propranolol, 1-[(1-Methylethyl)amino]-3-(1-naphthalenyloxy)-2-propanol]
[1]; C57BL6 mice treated for three weeks with propranolol (0.5 g/L in drinking water)
  reduction of the number of HSPCs elicited by G-CSF: > 20%

## fucoidan
[7]
  CFU-C mobilization by fucoidan: not mobilized

— patent US7939057B2, “Methods and compositions for modulating the mobilization of stem cells” (Mount Sinai School of Medicine, priority 2006, dated 2011)
